Three compounds from patent US9676715B2, “Bis-indolic derivatives, a process for preparing the same and their uses as a drug” (UNIVERSITE JOSEPH FOURIER, priority 2011, dated 2017) can be followed below.

As a reminder, the MIC is the smallest concentration in the dilution series that meets the test's criterion for growth inhibition. A lower MIC goes with inhibition by little substance.

The test system of test [1] is Staphylococcus aureus K2378 (overexpresses the efflux pump NorA from a multicopy plasmid). Description: Efflux pump inhibition assay with sub-inhibitory ciprofloxacin. The note with it: S. aureus K2378; in the presence of ciprofloxacin 0.5 mg/L. In kind it is cell-based. How it is done: The efflux pump inhibition potential of the bis-indolic derivatives was tested using two steps.
The following experimental protocol was used: indolic derivatives (initially solubilised in DMSO at 10 mg/mL) were dispensed in a 96-wells microplate by two fold serial dilutions in Muller-Hinton medium (MH, Bio Rad) using a Biomek 2000 (Beckman) handling robot. 100 μL of the bacterial inoculum (an overnight culture at 37° C. in 5 mL MH diluted 100-fold) was then added in each well. The total volume was 200 μL in each well and the final bacteria concentration 10^6 CFU/mL (CFU: colony forming unit). The highest final indolic derivative concentration was 128 mg/L. Growth was assayed with a microplate reader by monitoring absorption at 620 nm after 1, 2, 5, 7 and 24 h incubation at 37° C. In addition, the plates were read visually after 24 hours incubation. Cultures containing 5 μL DMSO were used as growth controls. In addition, two controls containing a sub-inhibitory or a inhibitory antibiotic concentration for the tested strain were performed. The antibiotics used were ampicillin (0.5 and 32 μg/mL) for E. coli, kanamycin (0.5 and 16 μg/mL) for S. aureus ATCC 25923, ciprofloxacin (4 and 64 mg/L) for S. aureus 1199B, ciprofloxacin (0.5 and 2 mg/L) for S. aureus K2378. All experiments were performed in duplicate.
Efflux pump inhibition assays were then performed against resistant Staphylococcus aureus strains SA 1199B and SA K2378 for bis-indolic derivatives. […] The minimal inhibitory concentration (MIC) of the bis-indolic compound allowing a complete inhibition of the bacterial growth in the presence of ciprofloxacin was determined.

Test [2] relates to Staphylococcus auricularis (CHUG-Saur1). Description: MIC, Staphylococcus panel (9.2). In kind it is cell-based. As to conditions: S. auricularis CHUG-Saur1, 4% DMSO, 18 h. On the procedure:
(§1) The microdilution method recommended by the Clinical and Laboratory Standard Institute [M07-A9, Vol. 32, N° 2] was used. The activity of bis-indolic compounds 3f and 4 was tested against 35 Staphylococcus bacterial strains corresponding to 12 different species,
(§2) Bacterial inocula were prepared in Mueller Hinton broth (MH2, BioMérieux, Marcy L'Etoile, France). They were dispensed in 96 well microtiter plates (5×10^5 CFU/ml of final inoculum, 192 μL per well). Indolic compounds diluted in pure DMSO (8 μL per well, concentrated 25 times) were added to the wells as to obtain two-fold serial concentrations (0.5-32 mg/L of final concentrations). The final concentration of DMSO was 4% in each well.
(§3) To avoid cross-contaminations in microtiter plates, one row was left blank between each strain tested. Microplates were incubated for 18 h at 37° C. in ambient air. Then MICs were read visually and, in case of visual reading difficulties, confirmed using a spectrophotometer at a wavelength of 630 nm (BioTek® EL808 Absorbance Microplate Reader). MICs corresponded to the minimum bis-indolic compound concentration that allowed complete visual growth inhibition of bacteria. Drug-free cultures served as growth controls.
(§4) Coagulase-negative Staphylococcus strains included three reference strains purchased from CRBIP: a methicillin-susceptible S. epidermidis strain (ATCC 12228), a methicillin-resistant S. epidermidis strain (ATCC 49461), and a methicillin-susceptible S. sciuri strain (ATCC 29061). We also used clinical strains belonging to the following coagulase-negative Staphylococcus species: S. auricularis (two strains), S. warneri (five strains), S. capitis (five strains), S. haemolyticus (four strains), S. hominis (seven strains), S. cohnii (two strains), and S. saprophyticus, S. caprae and S. simulans (one strain each). Identification of the clinical strains was obtained using VITEK® 2 System (Biomérieux). The specified strain numbers correspond to an internal number of the bacterial strain collection of our laboratory.

The test system of test [3] is Staphylococcus capitis (CHUG-Scap1). Nature of the test: MIC, Staphylococcus panel (9.2). The note with it: S. capitis CHUG-Scap1, 4% DMSO, 18 h. In kind it is cell-based. On the procedure: as §1, §2, §3, §4
For test [4], the system named is Staphylococcus epidermidis ATCC 12228. Nature of the test: MIC, Staphylococcus panel (9.2). The test is classed as cell-based. As to conditions: ATCC12228, S. epidermidis ATCC 12228, 4% DMSO, 18 h. On the procedure:
as §1, §2, §3, §4

In test [5] the test system is Staphylococcus epidermidis ATCC 49461. Nature of the test: MIC, Staphylococcus panel (9.2). In kind it is cell-based. As to conditions: ATCC49461, S. epidermidis ATCC 49461, 4% DMSO, 18 h. How it is done:
as §1, §2, §3, §4

The subject of test [6] is Staphylococcus haemolyticus (CHUG-Shae1). Description: MIC, Staphylococcus panel (9.2). The test is classed as cell-based. As to conditions: S. haemolyticus CHUG-Shae1, 4% DMSO, 18 h. How it is done:
as §1, §2, §3, §4

Test [7] relates to Staphylococcus hominis (CHUG-Shom1). Description: MIC, Staphylococcus panel (9.2). The test is classed as cell-based. As to conditions: S. hominis CHUG-Shom1, 4% DMSO, 18 h. How it is done:
as §1, §2, §3, §4

In test [8] the test system is Staphylococcus sciuri ATCC 29061. Description: MIC, Staphylococcus panel (9.2). The test is classed as cell-based. The note with it: Mammaliicoccus sciuri, ATCC29061; S. sciuri ATCC 29061; 4% DMSO, 18 h. How it is done:
as §1, §2, §3, §4

Test [9] relates to Staphylococcus warneri (CHUG-Swar1). Nature of the test: MIC, Staphylococcus panel (9.2). The test is classed as cell-based. As to conditions: S. warneri CHUG-Swar1, 4% DMSO, 18 h. How it is done:
as §1, §2, §3, §4

In another test the test system is S. aureus ATCC 25923. Description: Concentration-killing curves. In kind it is cell-based, Staphylococcus aureus. As to conditions: concentrations up to 128 mg/L, after 18 h of incubation. How it is done: FIGS. 1A and 1B present concentration-killing curves for the indolic compounds 3f and 4 against S. aureus ATCC 25923. The activity is evaluated after 18 h incubation of S. aureus cultures in the presence of the tested compound.
The area between the horizontal full line and the dashed line corresponds to a bacteriostatic effect and the area below the dashed line corresponds to a bactericidal effect (i.e., ≧3 log reduction of the primary bacterial inoculum after 18 h incubation of cultures in the presence of the tested compound).
The method described by Motyl et al. [M. Motyl, K. Dorso, J. Barrett, R. Giacobbe, Basic Microbiological Techniques Used in Antibacterial Drug Discovery. Current Protocols in Pharmacology. UNIT 13A.3. January, 2006] was used.
Killing curves corresponded to the measure of the kinetic of bactericidal activity of indolic compounds over time (time-kill curves) or after 18 h incubation of cultures according to different drug concentrations (concentration-killing curves). […] Bacterial inocula are determined in each tube using the CFU count method at the beginning of the experiments, and then after 18 h for concentration-killing curves, or after 1 h, 2 h, 4 h, 8 h and 18 h for time-kill curves. […]

In brackets after ≈: the same amount, converted by molar mass.

Consider `Cn1cc(C(=O)NC(CNC(=O)OC(C)(C)C)c2c[nH]c3ccc(Br)cc23)c2cc(Br)ccc21` (stereo not shown) [Compound 7, tert-Butyl (2-(5-bromo-1-methyl-1H-indole-3-carboxamido)-2-(5-bromo-1H-indol-3-yl)ethyl) carbamate], for which the “MIC, mg/L (Ciprofloxacin concentration, mg/L)” value in [1] is listed as 0.125 (0.5) mg/L.
Take `CC(NC(=O)c1c[nH]c2ccc(Br)cc12)c1c[nH]c2ccc(Br)cc12` (stereo not shown) [Compound 4, 5-Bromo-N-(1-(5-bromo-1H-indol-3-yl)ethyl)-1H-indole-3-carboxamide]: the MIC in [2] is 1 µg/mL (≈ 2.17 µM); in [3], 2 µg/mL (≈ 4.34 µM); in test [4], 1 µg/mL (≈ 2.17 µM); in test [5], 1 µg/mL (≈ 2.17 µM); in [6], 2 µg/mL (≈ 4.34 µM); in [7], 1 µg/mL (≈ 2.17 µM). Also, the MIC in test [8] was determined as 2 µg/mL (≈ 4.34 µM); in test [9], 1 µg/mL (≈ 2.17 µM). The “bactericidal activity (concentration-killing curve)” value in the test on S. aureus ATCC 25923 was “no detectable bactericidal activity”.
Regarding `CC(C)(C)OC(=O)NCC(NC(=O)c1c[nH]c2ccc(Br)cc12)c1c[nH]c2ccc(Br)cc12` (stereo not shown) [Compound 3f, tert-Butyl(2-(5-bromo-1H-indol-3-yl)-2-(5-bromo-1H-indolyl-3-carboxamido)ethyl)carbamate], the MIC was determined as 2 µg/mL (≈ 3.47 µM) in [2]; 4 µg/mL (≈ 6.94 µM) in test [3]; 2 µg/mL (≈ 3.47 µM) in [4]; 2 µg/mL (≈ 3.47 µM) in [5]; 4 µg/mL (≈ 6.94 µM) in test [6]; 4 µg/mL (≈ 6.94 µM) in [7]. In addition, the MIC in test [8] amounted to 4 µg/mL (≈ 6.94 µM); in [9], 2 µg/mL (≈ 3.47 µM). Besides, the “bactericidal activity (concentration-killing curve)” value in the test on S. aureus ATCC 25923 was “no detectable bactericidal activity”.
